Results as given in patent US11066396B2 (priority 2016, dated 2021).

Columns and labels:
HDAC1 = HDAC1 (Homo sapiens (Human), UniProt Q13547); conditions: read-out: HDAC1 IC50
HDAC5 = HDAC5 (Homo sapiens (Human), UniProt Q9UQL6); conditions: read-out: HDAC5 IC50
HDAC8 = HDAC8 (Homo sapiens (Human), UniProt Q9BY41); conditions: read-out: HDAC8 IC50
HDAC8, sequence (Q9BY41 whole entry): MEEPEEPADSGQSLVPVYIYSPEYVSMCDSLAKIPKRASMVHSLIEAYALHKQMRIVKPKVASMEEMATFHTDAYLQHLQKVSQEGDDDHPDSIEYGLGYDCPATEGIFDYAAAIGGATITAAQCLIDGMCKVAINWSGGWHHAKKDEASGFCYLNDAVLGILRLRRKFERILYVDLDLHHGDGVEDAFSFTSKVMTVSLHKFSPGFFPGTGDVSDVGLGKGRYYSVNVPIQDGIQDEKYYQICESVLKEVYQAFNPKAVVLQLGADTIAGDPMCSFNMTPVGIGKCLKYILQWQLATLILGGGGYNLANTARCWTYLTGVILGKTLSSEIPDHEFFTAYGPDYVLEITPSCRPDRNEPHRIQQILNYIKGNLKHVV

HDAC5, sequence (Q9UQL6 656-1122): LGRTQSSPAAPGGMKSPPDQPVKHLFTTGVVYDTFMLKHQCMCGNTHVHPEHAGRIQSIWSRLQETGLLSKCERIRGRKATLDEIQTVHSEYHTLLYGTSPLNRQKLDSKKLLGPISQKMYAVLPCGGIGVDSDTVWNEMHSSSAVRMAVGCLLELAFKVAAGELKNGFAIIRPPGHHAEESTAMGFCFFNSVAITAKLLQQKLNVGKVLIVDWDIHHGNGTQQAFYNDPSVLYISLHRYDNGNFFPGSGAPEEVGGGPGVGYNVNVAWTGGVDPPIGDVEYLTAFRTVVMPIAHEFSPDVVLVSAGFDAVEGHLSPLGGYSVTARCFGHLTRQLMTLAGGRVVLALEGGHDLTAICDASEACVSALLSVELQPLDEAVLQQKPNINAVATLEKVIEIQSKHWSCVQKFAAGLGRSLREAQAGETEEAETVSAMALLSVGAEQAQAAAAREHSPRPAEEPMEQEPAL
HDAC1, sequence (Q13547 whole entry): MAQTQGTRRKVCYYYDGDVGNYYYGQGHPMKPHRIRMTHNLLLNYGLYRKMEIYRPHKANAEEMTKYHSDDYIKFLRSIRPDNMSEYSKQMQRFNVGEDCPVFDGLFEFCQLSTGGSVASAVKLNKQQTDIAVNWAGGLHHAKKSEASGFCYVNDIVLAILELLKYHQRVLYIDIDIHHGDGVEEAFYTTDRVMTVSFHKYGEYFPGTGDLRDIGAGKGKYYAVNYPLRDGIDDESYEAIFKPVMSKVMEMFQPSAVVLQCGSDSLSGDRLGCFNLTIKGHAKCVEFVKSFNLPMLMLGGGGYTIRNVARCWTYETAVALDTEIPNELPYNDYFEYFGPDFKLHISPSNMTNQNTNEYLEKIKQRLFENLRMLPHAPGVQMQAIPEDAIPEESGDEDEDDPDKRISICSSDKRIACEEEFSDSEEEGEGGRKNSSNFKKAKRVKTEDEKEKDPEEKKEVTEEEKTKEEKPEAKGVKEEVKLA

Row | SMILES | IC50 (HDAC1) [nM] | IC50 (HDAC5) [nM] | IC50 (HDAC8) [nM]
1 | Cc1cncnc1OCc1ccc(-c2noc(C(F)(F)F)n2)cn1 [Example 307, 5-methyl-4-({5-[5-(trifluoromethyl)-1,2,4-oxadiazol-3-yl]pyridin-2-yl}methoxy)pyrimidine] | 2200 | 620 | –
2 | Fc1cc(COc2nc3cccnc3n2C2CC2)ccc1-c1noc(C(F)(F)F)n1 [Example 272, 3-cyclopropyl-2-({3-fluoro-4-[5-(trifluoromethyl)-1,2,4-oxadiazol-3-yl]phenyl}methoxy)-3H-imidazo[4,5-b]pyridine] | 630 | 31 | –
3 | Cc1ccnnc1OCc1ccc(-c2noc(C(F)(F)F)n2)c(F)c1 [Example 266, 3-({3-fluoro-4-[5-(trifluoromethyl)-1,2,4-oxadiazol-3-yl]phenyl}methoxy)-4-methylpyridazine] | 6600 | 250 | –
4 | FC(F)(F)c1nc(-c2ccc(COc3cc(Cl)ncn3)nc2)no1 [Example 309, 4-chloro-6-({5-[5-(trifluoromethyl)-1,2,4-oxadiazol-3-yl]pyridin-2-yl}methoxy)pyrimidine] | 4200 | 450 | –
5 | Fc1cc(COc2nnc(C3CC3)o2)ccc1-c1noc(C(F)(F)F)n1 [Example 280, 3-(4-{[(5-cyclopropyl-1,3,4-oxadiazol-2-yl)oxy]methyl}-2-fluorophenyl)-5-(trifluoromethyl)-1,2,4-oxadiazole] | 2200 | 190 | –
6 | COc1ncc(OCc2ccc(-c3noc(C(F)(F)F)n3)c(F)c2)cn1 [Example 279, 5-({3-fluoro-4-[5-(trifluoromethyl)-1,2,4-oxadiazol-3-yl]phenyl}methoxy)-2-methoxypyrimidine] | 750 | 69 | –
7 | Cc1ncc(OCc2ccc(-c3noc(C(F)(F)F)n3)c(F)c2)cn1 [Example 274, 5-({3-fluoro-4-[5-(trifluoromethyl)-1,2,4-oxadiazol-3-yl]phenyl}methoxy)-2-methylpyrimidine] | 4000 | 160 | –
8 | NC(=O)c1cccc(OCc2ccc(-c3noc(C(F)(F)F)n3)c(F)c2)c1 [Example 264, 3-({3-fluoro-4-[5-(trifluoromethyl)-1,2,4-oxadiazol-3-yl]phenyl}methoxy)benzamide] | 2200 | 90 | –
9 | Fc1cc(COc2cccc3[nH]ncc23)ccc1-c1noc(C(F)(F)F)n1 [Example 271, 4-({3-fluoro-4-[5-(trifluoromethyl)-1,2,4-oxadiazol-3-yl]phenyl}methoxy)-1H-indazole] | 3700 | 85 | –
10 | FC(F)(F)c1nc(-c2ccc(COc3ccc4ncnn4c3)nc2)no1 [Example 305, 6-({5-[5-(trifluoromethyl)-1,2,4-oxadiazol-3-yl]pyridin-2-yl}methoxy)[1,2,4]triazolo[1,5-a]pyridine] | 2400 | 1700 | –
11 | FC(F)(F)c1nc(-c2ccc(COc3cccc4[nH]nnc34)nc2)no1 [Example 297, 4-({5-[5-(trifluoromethyl)-1,2,4-oxadiazol-3-yl]pyridin-2-yl}methoxy)-1H-benzotriazole] | 310 | 51 | –
12 | CCNC(=O)NC(Cc1ccc(-c2noc(C(F)(F)F)n2)cn1)c1cccc(C(F)(F)F)c1 (stereo not shown) [Example 179, 1-Ethyl-3-(2-(5-(5-(trifluoromethyl)-1,2,4-oxadiazol-3-yl)pyridin-2-yl)-1-(3-(trifluoromethyl)phenyl)ethyl)urea] | 340 | 390 | –
13 | FC(F)c1cc(OCc2ccc(-c3noc(C(F)(F)F)n3)cn2)ncn1 [Example 306, 4-(difluoromethyl)-6-({5-[5-(trifluoromethyl)-1,2,4-oxadiazol-3-yl]pyridin-2-yl}methoxy)pyrimidine] | 1300 | 220 | –
14 | O=C(NC(Cc1ccc(-c2noc(C(F)(F)F)n2)cn1)c1cccc(C(F)(F)F)c1)C1CCS(=O)(=O)CC1 (racemic) [Example 477, 1,1-dioxo-N-(2-{5-[5-(trifluoromethyl)-1,2,4-oxadiazol-3-yl]pyridin-2-yl}-1-[3-(trifluoromethyl)phenyl]ethyl)-llambda~6~-thiane-4-carboxamide] | 670 | 620 | –
15 | FC(F)(F)c1nc(-c2ccc(COc3nncc4ccccc34)nc2)no1 [Example 298, 1-({5-[5-(trifluoromethyl)-1,2,4-oxadiazol-3-yl]pyridin-2-yl}methoxy)phthalazine] | 1000 | 290 | –
16 | COc1ncccc1OCc1ccc(-c2noc(C(F)(F)F)n2)cn1 [Example 308, 2-methoxy-3-({5-[5-(trifluoromethyl)-1,2,4-oxadiazol-3-yl]pyridin-2-yl}methoxy)pyridine] | 740 | 310 | –
17 | Fc1cc(COc2cccc3c2CNCC3)ccc1-c1noc(C(F)(F)F)n1 [Example 265, 8-({3-fluoro-4-[5-(trifluoromethyl)-1,2,4-oxadiazol-3-yl]phenyl}methoxy)-1,2,3,4-tetrahydroisoquinoline] | 5600 | 280 | –

Row | SMILES | IC50 (HDAC1) [nM] | IC50 (HDAC5) [nM] | IC50 (HDAC8) [nM]
18 | Fc1ccccc1OCc1cc(-c2noc(C(F)(F)F)n2)ccn1 [Example 250, 2-[(2-fluorophenoxy)methyl]-4-[5-(trifluoromethyl)-1,2,4-oxadiazol-3-yl]pyridine] | 3100 | 910 | –
19 | O=C1CCC(c2ccccc2Cl)N1c1cc(F)c(-c2noc(C(F)(F)F)n2)cc1F (racemic) [Example 120, 5-(2-chlorophenyl)-1-(2,5-difluoro-4-(5-(trifluoromethyl)-1,2,4-oxadiazol-3-yl)phenyl)pyrrolidin-2-one] | – | 79 | –
20 | COC(=O)NC(Cc1ccc(-c2noc(C(F)(F)F)n2)cn1)c1cccc(C(F)(F)F)c1 (stereo not shown) [Example 180] | 650 | 650 | –
21 | FC(F)(F)c1nc(-c2ccnc(OCc3ncccc3Cl)c2Cl)no1 [Example 295, 3-chloro-2-[(3-chloropyridin-2-yl)methoxy]-4-[5-(trifluoromethyl)-1,2,4-oxadiazol-3-yl]pyridine] | 17000 | 500 | –
22 | Fc1cc(COc2nnnc3ccccc23)ccc1-c1noc(C(F)(F)F)n1 [Example 262, 4-({3-fluoro-4-[5-(trifluoromethyl)-1,2,4-oxadiazol-3-yl]phenyl}methoxy)-1,2,3-benzotriazine] | 2900 | 120 | –
23 | Cc1csc(OCc2ccc(-c3noc(C(F)(F)F)n3)c(F)c2)n1 [Example 281, 3-(2-fluoro-4-{[(4-methyl-1,3-thiazol-2-yl)oxy]methyl}phenyl)-5-(trifluoromethyl)-1,2,4-oxadiazole] | 2700 | 30 | –
24 | Cc1ccc(OCc2ccc(-c3noc(C(F)(F)F)n3)c(F)c2)nn1 [Example 263, 3-({3-fluoro-4-[5-(trifluoromethyl)-1,2,4-oxadiazol-3-yl]phenyl}methoxy)-6-methylpyridazine] | 5300 | 240 | –
25 | Cn1c(OCc2ccc(-c3noc(C(F)(F)F)n3)c(F)c2)nc2ncccc21 [Example 273, 2-({3-fluoro-4-[5-(trifluoromethyl)-1,2,4-oxadiazol-3-yl]phenyl}methoxy)-1-methyl-1H-imidazo[4,5-b]pyridine] | 720 | 28 | –
26 | Cn1ccc(COc2nccc(-c3noc(C(F)(F)F)n3)c2Cl)n1 [Example 289, 3-chloro-2-[(1-methyl-1H-pyrazol-3-yl)methoxy]-4-[5-(trifluoromethyl)-1,2,4-oxadiazol-3-yl]pyridine] | 8400 | 680 | –
27 | Cc1cnc(COc2nccc(-c3noc(C(F)(F)F)n3)c2Cl)cn1 [Example 290, 2-[({3-chloro-4-[5-(trifluoromethyl)-1,2,4-oxadiazol-3-yl]pyridin-2-yl}oxy)methyl]-5-methylpyrazine] | 8100 | 660 | –
28 | CC1(C)COCCN1C(=O)[C@@H]1CCC(=O)N1c1ccc(-c2noc(C(F)(F)F)n2)c(F)c1 [Example 344, (5S)-5-[(3,3-dimethylmorpholin-4-yl)carbonyl]-1-{3-fluoro-4-[5-(trifluoromethyl)-1,2,4-oxadiazol-3-yl]phenyl}pyrrolidin-2-one] | 45000 | 1900 | –
29 | O=c1ccc2cnccc2n1Cc1ccc(-c2noc(C(F)(F)F)n2)cn1 [Example 301, 1-({5-[5-(trifluoromethyl)-1,2,4-oxadiazol-3-yl]pyridin-2-yl}methyl)-1,6-naphthyridin-2(1H)-one] | 280 | 37 | –
30 | CC(C)(C)CC(=O)NC(Cc1ccc(-c2noc(C(F)(F)F)n2)cn1)c1cccc(C(F)(F)F)c1 (racemic) [Example 481, 3,3-dimethyl-N-(2-{5-[5-(trifluoromethyl)-1,2,4-oxadiazol-3-yl]pyridin-2-yl}-1-[3-(trifluoromethyl)phenyl]ethyl)butanamide] | 1100 | 710 | –
31 | Fc1cc(COc2ccc(Cl)nc2)ccc1-c1noc(C(F)(F)F)n1 [Example 288, 2-chloro-5-({3-fluoro-4-[5-(trifluoromethyl)-1,2,4-oxadiazol-3-yl]phenyl}methoxy)pyridine] | 45000 | 280 | –
32 | Fc1cc(COc2nccc3nccn23)ccc1-c1noc(C(F)(F)F)n1 [Example 268, 5-({3-fluoro-4-[5-(trifluoromethyl)-1,2,4-oxadiazol-3-yl]phenyl}methoxy)imidazo[1,2-c]pyrimidine] | 2900 | 120 | –
33 | O=C1CCc2cccc(C(F)(F)F)c2N1Cc1ccc(-c2noc(C(F)(F)F)n2)cn1 [Example 475, 8-(trifluoromethyl)-1-({5-[5-(trifluoromethyl)-1,2,4-oxadiazol-3-yl]pyridin-2-yl}methyl)-3,4-dihydroquinolin-2(1H)-one] | 880 | – | 5600
34 | O=C1CCC(c2c(F)cccc2F)N1c1ccc(-c2noc(C(F)(F)F)n2)cc1F (racemic) [Example 314, 5-(2,6-difluorophenyl)-1-{2-fluoro-4-[5-(trifluoromethyl)-1,2,4-oxadiazol-3-yl]phenyl}pyrrolidin-2-one] | 11000 | – | 6500
